In PubChem BioAssay AID330 (DTP/NCI, 2004):
Where “and” joins values, the source holds several entries; their conditions need not be identical. Equal entries are not always repeated. Inconclusive results and toxic doses are left out. Rule for the calls: active = survival T/C of 150% or more; inactive = T/C below 125% in these data. Peptide text beside a SMILES is read from it. * marks the point of attachment. Cbz = O=C(OCc1ccccc1)*

System: P388 leukemia ip, CD2F1 mice, survival T/C
Experiment: NCI In Vivo Anticancer Drug Screen. Data for tumor model P388 Leukemia (intraperitoneal) in CD2F1 (CDF1) mice
Details: endpoint: median survival time, higher = longer survival
Outline: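 Mice carrying the transplanted tumor received test compound or vehicle. Survival was recorded in each group, and the value is the treated-group measurement divided by that of the vehicle-treated control group.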

[1] = dose: 25.0 mg/kg/injection, schedule: Q01DX005 (ip), vehicle: Klucel (hydroxypropylcellulose) (HPC)
[2] = dose: 50.0 mg/kg/injection, schedule: Q01DX005 (ip), vehicle: Klucel (hydroxypropylcellulose) (HPC)
[3] = dose: 100.0 mg/kg/injection, schedule: Q01DX005 (ip), vehicle: Klucel (hydroxypropylcellulose) (HPC)
[4] = dose: 200.0 mg/kg/injection, schedule: Q01DX005 (ip), vehicle: Klucel (hydroxypropylcellulose) (HPC)
[5] = dose: 50.0 mg/kg/injection, schedule: Q01DX009 (ip), vehicle: saline
[6] = dose: 100.0 mg/kg/injection, schedule: Q01DX009 (ip), vehicle: saline
[7] = dose: 50.0 mg/kg/injection, schedule: Q01DX005 (ip), vehicle: saline
[8] = dose: 100.0 mg/kg/injection, schedule: Q01DX005 (ip), vehicle: saline
[9] = dose: 200.0 mg/kg/injection, schedule: Q01DX005 (ip), vehicle: saline
[10] = dose: 60.0 mg/kg/injection, schedule: Q01DX005 (ip), vehicle: saline with Tween-80
[11] = dose: 25.0 mg/kg/injection, schedule: Q01DX009 (ip), vehicle: saline with Tween-80
[12] = dose: 50.0 mg/kg/injection, schedule: Q01DX009 (ip), vehicle: saline with Tween-80
[13] = dose: 50.0 mg/kg/injection, schedule: Q01DX005 (ip), vehicle: saline with Tween-80
[14] = dose: 100.0 mg/kg/injection, schedule: Q01DX005 (ip), vehicle: saline with Tween-80
[15] = dose: 200.0 mg/kg/injection, schedule: Q01DX005 (ip), vehicle: saline with Tween-80

Measured: T/C

O=C(/C=C/c1ccc2c(c1)OCO2)c1ccccc(=O)c1O
inactive: [1] 95 % of control | [2] 100 % of control | [3] 101 % of control | [4] 118 % of control

O=C(O)CSc1ccc2c3c(cccc13)C(=O)c1ccccc1-2
inactive: dose: 6.25 mg/kg/injection, schedule: Q01DX009 (ip), vehicle: saline 100 % of control | dose: 12.5 mg/kg/injection, schedule: Q01DX009 (ip), vehicle: saline 99 % of control and 111 % of control | dose: 25.0 mg/kg/injection, schedule: Q01DX009 (ip), vehicle: saline 111 % of control | [5] 108 % of control | [6] 104 % of control

COC(=O)C1(O)OCC(O)C(O)C1O (stereo not drawn)
inactive: [7] 100 % of control | [8] 105 % of control | [9] 100 % of control

C=C1C(=O)C23CC[C@H]4C(C)(CCC[C@]4(C)C(=O)O)[C@@H]2CCC1C3 (stereo partly drawn)
inactive: dose: 3.75 mg/kg/injection, schedule: Q01DX005 (ip), vehicle: Klucel (hydroxypropylcellulose) (HPC) 86 % of control | dose: 7.5 mg/kg/injection, schedule: Q01DX005 (ip), vehicle: Klucel (hydroxypropylcellulose) (HPC) 91 % of control | dose: 15.0 mg/kg/injection, schedule: Q01DX005 (ip), vehicle: Klucel (hydroxypropylcellulose) (HPC) 87 % of control | dose: 30.0 mg/kg/injection, schedule: Q01DX005 (ip), vehicle: Klucel (hydroxypropylcellulose) (HPC) 98 % of control

FC(F)(F)C1(C(F)(F)F)OS2(F)(F)(OC(C(F)(F)F)(C(F)(F)F)c3ccccc32)c2ccccc21
inactive: [1] 92 % of control | [2] 95 % of control | [3] 94 % of control

CCOc1ccccc1N=Nc1c(C)nn(C(=S)SC)c1OCC
inactive: dose: 30.0 mg/kg/injection, schedule: Q01DX005 (ip), vehicle: Klucel + Tween-80 91 % of control | dose: 60.0 mg/kg/injection, schedule: Q01DX005 (ip), vehicle: Klucel + Tween-80 88 % of control and 95 % of control | dose: 120.0 mg/kg/injection, schedule: Q01DX005 (ip), vehicle: Klucel + Tween-80 86 % of control

c1ccc(SCc2ccc3c(c2)OCO3)cc1
inactive: dose: 100.0 mg/kg/injection, schedule: Q01DX001 (ip), vehicle: Klucel (hydroxypropylcellulose) (HPC) 107 % of control | dose: 200.0 mg/kg/injection, schedule: Q01DX001 (ip), vehicle: Klucel (hydroxypropylcellulose) (HPC) 102 % of control | dose: 400.0 mg/kg/injection, schedule: Q01DX001 (ip), vehicle: Klucel (hydroxypropylcellulose) (HPC) 100 % of control

CCc1cccc2c(NCCCCCCCCNc3c4ccccc4nc4c(CC)cccc34)c3ccccc3nc12
inactive: dose: 0.63 mg/kg/injection, schedule: Q01DX005 (ip), vehicle: other 110 % of control | dose: 1.25 mg/kg/injection, schedule: Q01DX005 (ip), vehicle: other 110 % of control | dose: 2.5 mg/kg/injection, schedule: Q01DX005 (ip), vehicle: other 122 % of control | dose: 3.75 mg/kg/injection, schedule: Q01DX005 (ip), vehicle: other 104 % of control | dose: 5.0 mg/kg/injection, schedule: Q01DX005 (ip), vehicle: other 113 % of control | dose: 7.5 mg/kg/injection, schedule: Q01DX005 (ip), vehicle: other 118 % of control | dose: 10.0 mg/kg/injection, schedule: Q## X009 (ip), vehicle: lactic acid 110 % of control

Nc1nc2c(=O)[nH]c(=O)[nH]c2n1C1OC(CO)C(O)C1O (stereo not drawn)
inactive: [10] 117 % of control

CC(O)C(NC(=O)OCc1ccccc1)C(=O)NC(Cc1ccccc1)C(=O)O (stereo not drawn) (Cbz-Thr-Phe-OH; configuration not given here)
inactive: [2] 100 % of control | [3] 101 % of control | [4] 101 % of control

C[n+]1cccc(NC(=O)c2ccccc2)c1
inactive: dose: 7.5 mg/kg/injection, schedule: Q01DX005 (ip), vehicle: saline with Tween-80 102 % of control | dose: 15.0 mg/kg/injection, schedule: Q01DX005 (ip), vehicle: saline with Tween-80 99 % of control | dose: 30.0 mg/kg/injection, schedule: Q01DX005 (ip), vehicle: saline with Tween-80 113 % of control

COC(=O)C(=O)C(C(=O)c1ccncc1)c1nc2n(c1O)C(=N)N=N2 (stereo not drawn)
inactive: [7] 97 % of control | [8] 97 % of control | [9] 100 % of control

CN(C)c1ccc(/C=N/NC(=O)c2ccccc2N)cc1
inactive: [10] 103 % of control | dose: 120.0 mg/kg/injection, schedule: Q01DX005 (ip), vehicle: saline with Tween-80 100 % of control | dose: 240.0 mg/kg/injection, schedule: Q01DX005 (ip), vehicle: saline with Tween-80 98 % of control

CC12CCC(O)CC1CCC1C2CCC2(C)C(c3ccc(=O)oc3)CCC12O (stereo not drawn)
inactive: dose: 0.31 mg/kg/injection, schedule: Q01DX009 (ip), vehicle: saline with Tween-80 100 % of control | dose: 0.62 mg/kg/injection, schedule: Q01DX009 (ip), vehicle: saline with Tween-80 97 % of control | dose: 1.25 mg/kg/injection, schedule: Q01DX009 (ip), vehicle: saline with Tween-80 97 % of control | dose: 2.5 mg/kg/injection, schedule: Q01DX009 (ip), vehicle: saline with Tween-80 103 % of control

N#Cc1ccccc1-n1c(=O)c2cc3c(=O)n(-c4ccccc4C#N)c(=O)c3cc2c1=O
inactive: [11] 100 % of control and 103 % of control | [12] 95 % of control and 97 % of control | dose: 100.0 mg/kg/injection, schedule: Q01DX009 (ip), vehicle: saline with Tween-80 100 % of control and 103 % of control | dose: 200.0 mg/kg/injection, schedule: Q01DX009 (ip), vehicle: saline with Tween-80 102 % of control and 95 % of control | dose: 400.0 mg/kg/injection, schedule: Q01DX009 (ip), vehicle: saline with Tween-80 100 % of control and 96 % of control

CCCCC1C(C#N)C(=O)NC(=O)C1C#N (stereo not drawn)
inactive: dose: 50.0 mg/kg/injection, schedule: Q01DX009 (ip), vehicle: Klucel (hydroxypropylcellulose) (HPC) 100 % of control | dose: 100.0 mg/kg/injection, schedule: Q01DX009 (ip), vehicle: Klucel (hydroxypropylcellulose) (HPC) 95 % of control | dose: 200.0 mg/kg/injection, schedule: Q01DX009 (ip), vehicle: Klucel (hydroxypropylcellulose) (HPC) 99 % of control

S=c1nc(-c2ccccc2)oc(=NC2CCCCC2)n1C1CCCCC1
inactive: [13] 98 % of control | [14] 101 % of control | [15] 109 % of control

NC(=O)c1ncnc2nc[nH]c12
inactive: dose: 1.56 mg/kg/injection, schedule: Q01DX005 (ip), vehicle: saline with Tween-80 100 % of control and 102 % of control and 96 % of control | dose: 3.13 mg/kg/injection, schedule: Q01DX005 (ip), vehicle: saline with Tween-80 100 % of control and 105 % of control | dose: 12.5 mg/kg/injection, schedule: Q01DX005 (ip), vehicle: saline with Tween-80 111 % of control and 114 % of control

N=C(N)SCCN1C(=O)NC(c2ccccc2)(c2ccccc2)C1=O
inactive: dose: 25.0 mg/kg/injection, schedule: Q04DX003 (ip), vehicle: Klucel (hydroxypropylcellulose) (HPC) 114 % of control | dose: 50.0 mg/kg/injection, schedule: Q04DX003 (ip), vehicle: Klucel (hydroxypropylcellulose) (HPC) 114 % of control | dose: 100.0 mg/kg/injection, schedule: Q04DX003 (ip), vehicle: Klucel (hydroxypropylcellulose) (HPC) 96 % of control | dose: 200.0 mg/kg/injection, schedule: Q04DX003 (ip), vehicle: Klucel (hydroxypropylcellulose) (HPC) 114 % of control

O=C1OCC(Cc2ccc3c(c2)OCO3)C1Cc1ccc2c(c1)OCO2 (stereo not drawn)
inactive: [5] 109 % of control | [6] 93 % of control | dose: 200.0 mg/kg/injection, schedule: Q01DX009 (ip), vehicle: saline 99 % of control

CCCCC(CCCCCC(CCCC)C1NC(C)Cc2cc(OC)c(OC)cc21)C1NC(C)Cc2cc(OC)c(OC)cc21 (stereo not drawn)
inactive: dose: 6.25 mg/kg/injection, schedule: Q01DX005 (ip), vehicle: saline 99 % of control | dose: 12.5 mg/kg/injection, schedule: Q01DX005 (ip), vehicle: saline 105 % of control | dose: 25.0 mg/kg/injection, schedule: Q01DX005 (ip), vehicle: saline 90 % of control

O=C(CBr)N1c2ccccc2Sc2ccc3ccccc3c21
inactive: [11] 110 % of control and 120 % of control | [12] 122 % of control

Nc1nnc2nc(C(C(=O)c3ccc(F)cc3)c3nc4nnc(N)n4[nH]c3=O)c(=O)[nH]n12
inactive: [13] 98 % of control | [14] 92 % of control | [15] 91 % of control
